Test results taken from patent EP4700025A1, “AMIDE COMPOUND, PHARMACEUTICAL COMPOSITION COMPRISING SAME, AND USE THEREOF” (Suzhou Genhouse Bio Co., Ltd., priority 2023, dated 2024).

Tests used:
[1] = Pharmacokinetic assay in rats; assay type: in vivo, SD rats; settings: rat
Protocol: In this experimental example, the pharmacokinetic behavior of the test compounds after administration by intravenous injection (IV) and oral gavage (PO) in SD rats was tested.
On the day of administration, rats were weighed for actual body weight, and the administration volume was calculated. Each compound was tested in two groups with 3 rats in each group; one group was subjected to administration by single intravenous injection, and the other group was subjected to administration by single oral gavage. The whole blood samples were collected via the jugular vein at prescribed time points (0.25 h, 0.5 h, 1 h, 2 h, 4 h, 8 h, and 24 h after administration). After the blood sample collection, the samples were immediately transferred to labeled commercial sample tubes containing K2-EDTA (0.85-1.15 mg), followed by centrifugation (3200× g, 4 °C, 10 min) and plasma collection. The plasma was transferred to a pre-cooled centrifuge tube, frozen in dry ice, and then stored in an ultra-low temperature freezer at -60 °C or lower until the LC-MS/MS analysis was performed.
Plasma concentrations were determined by the LC-MS/MS method. Plasma drug concentration data for the compounds were processed using a non-compartmental model in the WinNonlin Version 6.3 (Pharsight, Mountain View, CA) pharmacokinetic software. The relevant pharmacokinetic parameters were calculated by a linear-log trapezoidal method.

[2] = target: T1, hERG Potassium Ion Channel (Homo sapiens, UniProt Q12809); assay: Effect on hERG potassium ion channel (whole-cell patch clamp, HEK293 cells); assay type: cell-based; settings: whole-cell patch clamp (Qpatch), room temperature
T1 construct: expressed in transfected cells; host or cells: HEK293
Protocol: HEK293 cells were cultured in a DMEM medium containing 10% fetal bovine serum and 0.8 mg/mL G418 at 37 °C with 5% CO2. The cells were digested by TrypLE™ Express and then centrifuged. The cell density was adjusted to 2 × 10^6 cells/mL. The cells were then gently mixed for 15 to 20 min using a shaker equilibrated at room temperature, and subjected to a patch clamp assay on a machine. The culture medium of the prepared cells was replaced with extracellular fluid. The intracellular fluid and the extracellular fluid were taken from the fluid pool and added to the intracellular fluid pool and the cell and test substance pool of the QPlate chip, respectively. The voltage stimulation of the whole-cell hERG potassium current was recorded by the whole-cell patch clamp, and the experimental data were collected and stored by Qpatch. […] The current detected in compound-free extracellular fluid for each cell served as its own control group, and the detection was repeated twice independently using at least two cells per concentration. […] For data analysis, the current after the action of each drug concentration and the current of the blank control were standardized ((Peak tail currentcompound)/(Peak tail currentvehicle)) [formula] , and then the inhibition rate corresponding to each drug concentration was calculated (1−(Peak tail currentcompound)/(Peak tail currentvehicle)) [formula] . […]

[3] = Pharmacokinetic assay in mice; assay type: in vivo, Balb/c mice; settings: male, Balb/c, plasma, mouse
Protocol: Eighteen male Balb/c mice aged 6 to 8 weeks were randomly divided into 2 groups (IV group and PO group). The corresponding compounds were administered to the animals in the IV group by tail intravenous injection at 2 mg/kg, and the corresponding compounds were administered to the animals in the PO group by oral gavage at 10 mg/kg or 100 mg/kg. The animals in the IV group were allowed free access to food and water, and the animals in the PO group were fasted overnight before administration and were fed 4 h after administration. Throughout the experiment, the animals were allowed free access to water. Plasma samples were separately collected at 0.083 h (only group IV), 0.25 h, 0.5 h, 1 h, 2 h, 4 h, 8 h, and 24 h after administration. About 100 µL of blood was collected from the orbit of the animal, placed into a 1.5 mL anticoagulation centrifuge tube, and centrifuged at 8000 rpm and 4 °C for 10 min. The upper plasma sample was transferred to an EP tube. The plasma samples were stored in a refrigerator at -80 °C until sample analysis. Pharmacokinetic parameters of the drug were calculated based on the drug concentration-time data, including the peak concentration Cmax, peak time Tmax, clearance rate CL, steady state apparent volume of distribution Vss, area under drug-time curve AUC, elimination half-life t1/2, bioavailability, and the like. Data below the 80% lower limit of quantification were excluded from the calculation of pharmacokinetic parameters.

[4] = SD, plasma, 100 mg/kg, PO 100mpk

T1 sequence (Q12809 whole entry): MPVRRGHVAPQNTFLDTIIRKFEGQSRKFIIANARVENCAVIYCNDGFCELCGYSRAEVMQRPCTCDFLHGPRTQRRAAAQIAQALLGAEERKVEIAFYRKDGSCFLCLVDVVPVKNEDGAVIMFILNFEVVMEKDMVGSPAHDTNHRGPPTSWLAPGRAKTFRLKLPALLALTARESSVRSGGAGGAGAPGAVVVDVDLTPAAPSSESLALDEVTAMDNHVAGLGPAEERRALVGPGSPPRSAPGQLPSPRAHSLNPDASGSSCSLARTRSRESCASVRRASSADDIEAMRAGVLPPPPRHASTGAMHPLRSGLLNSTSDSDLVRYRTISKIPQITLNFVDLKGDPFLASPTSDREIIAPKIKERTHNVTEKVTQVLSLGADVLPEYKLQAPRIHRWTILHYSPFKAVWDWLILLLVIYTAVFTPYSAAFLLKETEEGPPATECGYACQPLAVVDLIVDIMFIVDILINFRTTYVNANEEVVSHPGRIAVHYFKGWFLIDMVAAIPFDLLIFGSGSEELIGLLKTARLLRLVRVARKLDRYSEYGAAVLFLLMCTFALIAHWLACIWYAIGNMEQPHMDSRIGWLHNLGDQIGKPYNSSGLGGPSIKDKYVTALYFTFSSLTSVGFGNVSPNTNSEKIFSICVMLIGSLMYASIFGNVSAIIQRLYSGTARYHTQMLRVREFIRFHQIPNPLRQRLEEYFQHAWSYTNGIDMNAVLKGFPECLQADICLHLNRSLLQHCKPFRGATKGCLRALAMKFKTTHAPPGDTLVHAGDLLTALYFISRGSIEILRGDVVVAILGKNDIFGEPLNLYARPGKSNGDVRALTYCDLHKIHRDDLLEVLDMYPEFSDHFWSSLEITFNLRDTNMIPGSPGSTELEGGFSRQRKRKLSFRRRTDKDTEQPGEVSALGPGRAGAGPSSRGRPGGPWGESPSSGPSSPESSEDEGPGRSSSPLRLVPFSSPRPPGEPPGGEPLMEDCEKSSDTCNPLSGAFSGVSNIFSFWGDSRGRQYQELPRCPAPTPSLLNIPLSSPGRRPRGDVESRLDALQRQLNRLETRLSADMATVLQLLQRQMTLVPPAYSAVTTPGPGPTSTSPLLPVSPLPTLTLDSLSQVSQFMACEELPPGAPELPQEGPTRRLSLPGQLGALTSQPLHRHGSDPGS

- AUC(0-t) ([1]; SD, plasma, 2 mg/kg, IV 2mpk): 4.75 µM·h
- AUC(0-t) [1, 4]: 122 µM·h
- Cmax [1, 4]: 5.42 µM
- F ([1]; PO 100mpk vs IV 2 mpk): 51%
- AUC(0-t) ([3]; 2 mg/kg, IV 2mpk): 9.6 µM·h
- AUC(0-t) ([3]; 100 mg/kg, PO 100mpk): 455 µM·h
- Cmax ([3]; 100 mg/kg, PO 100mpk): 35.7 µM
Structure (SMILES): Cn1ncc2c(N)nc3cnc(C(=O)N4CCOC[C@@H]4c4ccc(C(F)(F)F)cc4)cc3c21 [Control compound A, reference compound]
- IC50 [2]: 13 µM
